{"source": "patent US20230277491A1", "about": "“PHARMACEUTICAL COMBINATION COMPRISING GLYCOLIC ACID AND L-ALANINE” (priority 2020, published 2023)", "key": {"[1]": {"system": "dopaminergic neurons", "test": "Morphology of dopaminergic TH+ neurons in primary mesencephalic culture", "format": "cell-based, mouse", "details": "5 mM GA, FIG. 14", "experimental": "Effect of GA treatment on the morphology of dopaminergic neurons. Fluorescent microscopy images on the left show to TH+ neurons in a primary mesencephalic cell culture with (GA) and without (Control) treatment. […] FIG. 16:\nPrimary mesencephalic neuronal cell cultures were prepared as previously described. Briefly, E14.5 embryos were obtained from C57JBL6 pregnant mice after cervical dislocation. Brain mesencephali were dissected under the microscope and digested with Trypsin-EDTA 0.12% (Life Technologies, USA) for 7 min. The trypsin reaction was then stopped by adding basic medium (BM), containing Neurobasal A medium (Gibco, USA), 1 mg/mL Pen/Strep, 10% FCS, and […] L-Glutamine, and cells were mechanically dissociated using a fire-polished Pasteur pipette. Medium was fully replaced after 5 min, centrifugation at 1200 rpm, aspiring the supernatant and adding 8 mL of fresh BM to the pellet. Concentration of cells in the medium was estimated using a Neubauer chamber and a 100 μL of medium containing 10^6 cells/mL plated per well in a 96-well plate (Greiner Sensoplate, Germany, EU). […]\n[…] The effect of GA and DL on dopaminergic neurons was assessed through semi-automatic quantification of neurite length and width of TH+ neurons after treatment. […] Dopaminergic TH^+ neurons were observed using an inverted fluorescence microscope (Olympus) under a 20× objective."}, "[2]": {"system": "cortical neurons", "test": "Calcium imaging on primary cortical neurons (SOCE, glutamate-triggered action potential)", "format": "cell-based, mouse", "details": "FIG. 15", "experimental": "GA enhances SOCE and calcium influx during glutamate-triggered action potentials. Fluorescent microscopy images in a show the effect of calcium, glutamate and ionomycin on intracellular calcium in Fluo-4 AM charged cortical neurons at different time points.\nPrimary cortical neuronal cell cultures were prepared from E15.5 embryos. Briefly, brain cortex from E15.5 pregnant wild type C57Bl/6J or PARK-7^−/− mice were dissected and placed in cold HBSS without Ca2+ and Mg2+(Sigma Aldrich H6648, Germany, EU). Once freed from all other cerebral structures, cortex were placed in an empty petri dish, sliced with the help of a scalpel and trypsinized using a 1:1 mixture of Trypsin (Gibco 25200-056):HBSS at 37° C. for 7 min. The samples were then centrifuged for 4 min. at 800 rpm and the supernatant was replaced with plating medium (89% Neurobasal A, 8.9% FBS, 0.9% L-glutamine, 0.9% N2 supplement and 0.4% P/S). […]\nVariations in the Fluo-4 AM fluorescence during Ca^2+ and/or glutamate addition were analyzed using FIJI Image Analysis Freeware. The ROIs were determined using the standard deviation function for the stack of images before and after the addition of 1.8 mM CaCl2 (for changes in intracellular Ca^2+) or before and after the addition of glutamate. […] Once all ROIs were identified and selected, the MFI of each ROI for each time-point was measured with the measure function of the program to generate a matrix with the raw MFI values for each ROI for each time point. […] To determine the effect of GA and DL on Ca^2+ influx after CaCl2 addition and after glutamate addition, all ROIs where normalized using a max-min normalization as previously described: ([Ca^2+]Ca—[Ca^2+]t0/([Ca^2+]ionomycine-[Ca^2+]t0) Once the new matrix with the normalized values was generated, we determined the area under the curve (AUC) in excel using the formula: (Y1+Y2)/2*(X2−X1). The AUC was then obtained as the sum of all the generated values."}}}
{"compound": "O=C(O)CO", "note": "[GA, 2-hydroxyethanoic acid]", "values": [{"measurement": "morphology of dopaminergic neurons (neurite and axon length, secondary ramifications)", "setting": "[1]", "result": "increases the length of the neurites and the main axon and the number of secondary ramifications"}, {"measurement": "intracellular calcium during the glutamate-triggered action potential", "setting": "[2]; 2.5 mM GA", "result": "higher increases in intracellular calcium during the action potential"}, {"measurement": "storage operated calcium entry (SOCE)", "setting": "[2]; 2.5 mM GA, after addition of calcium", "result": "increased storage operated calcium entry (SOCE)"}, {"measurement": "calcium transients", "setting": "[2]", "result": "bigger calcium transients"}]}
